Patent EP2193713A1, “Method for fighting animal pests without damaging pollinating insects” (Bayer CropScience AG, priority 2008, dated 2010)
Read-outs that look alike come from different tables or passages of the source.

Key:
Type in all cases: in vivo
Apis mellifera [1] = experiment: Tunnel test / spray application / bees: brood development (share of comb cells); conditions: 150 g a.s./ha
Text: (§1) Der Test wurde gemäß EPPO (European Plant Protection Organisation) Leitlinie 170 wie folgt durchgeführt:
Über alle Waben eines Bienenstocks wird der jeweilige Anteil an Zellen bestimmt, der durch Pollen, Nektar, Eier, Larven oder Puppen belegt ist bzw. leer ist. […]

Apis mellifera [2] = experiment: Tunnel test / spray application / bees: acute mortality of pupae in front of the hive; conditions: for Zahl toter Puppen: 150 g a.s./ha
Text: as §1
Tabelle 2 (siehe auch Figur 2)

Apis mellifera [3] = conditions: 150 g a.s./ha
Text: as §1
Die Mortalität von Arbeiterbienen vor dem Bienenstock wird mittels einer Falle für tote Bienen (dead bee trap) bestimmt. Die Falle besteht aus Maschendraht und ist vor dem Bienenstock angebracht. Einzelne, lebende Bienen können die Maschen des Drahts passieren, der Transport toter Bienen durch die Maschen ist nicht möglich, weswegen tote Bienen sich in der Falle ansammeln. Tabelle 1 (siehe auch Figur 1)

Apis mellifera [4] = experiment: Tunnel test / spray application / bees: foraging activity; conditions: 150 g a.s./ha
Text: as §1
Während einer Minute werden in einem abgegrenzten Bereich von 2 x 1 m^2 die Bienen gezählt, die auf Blüten absitzen. Tabelle 3 (siehe auch Figur 3)

Apis mellifera [5] = experiment: Greenhouse test / residue test / bees: mortality after contact with treated tomato leaves; conditions: 100 g a.s./ha
Text: Der Versuch wurde wie folgt durchgeführt:
Die Tomatenpflanzen wurden im Gewächshaus mit den Testverbindungen bzw. der Referenzsubstanz behandelt (Spritzappliaktion, 3 fache Wiederholung). 1, 3, 6 und 13 Tage nach Behandlung (DAA) wurden Blätter entnommen (je 5 Blattproben pro Behandlung) und in Boxen gegeben. In jede Box wurden 10 Bienen transferiert und die Boxen wurden unter kontrollierten Bedingungen aufbewahrt, wobei die Bienen mit Zuckerlösung gefüttert wurden. 24, 48 und 72 nach Transfer der Bienen wurde deren Mortalität bestimmt. Tabelle 9 (siehe auch Figur 9)

[6] = leaves taken 1 Tag nach Behandlung, 24 h contact
[7] = leaves taken 1 Tag nach Behandlung, 48 h contact
[8] = leaves taken 1 Tag nach Behandlung, 72 h contact
[9] = leaves taken 3 Tage nach Behandlung, 24 h contact
[10] = leaves taken 3 Tage nach Behandlung, 48 h contact
[11] = leaves taken 3 Tage nach Behandlung, 72 h contact
[12] = leaves taken 6 Tage nach Behandlung, 24 h contact
[13] = leaves taken 6 Tage nach Behandlung, 48 h contact
[14] = leaves taken 6 Tage nach Behandlung, 72 h contact
[15] = leaves taken 13 Tage nach Behandlung, 24 h contact
[16] = leaves taken 13 Tage nach Behandlung, 48 h contact
[17] = leaves taken 13 Tage nach Behandlung, 72 h contact

CCOC(=O)NCCOc1ccc(Oc2ccccc2)cc1 [Fenoxycarb, reference compound]
Anteil an Zellen: Eier (Apis mellifera [1]; 1 Tag vor Applikation): 12,5%
Anteil an Zellen: Larven (Apis mellifera [1]; 1 Tag vor Applikation): 14,2%
Anteil an Zellen: Leer (Apis mellifera [1]; 1 Tag vor Applikation): 25,8%
Anteil an Zellen: Nektar (Apis mellifera [1]; 1 Tag vor Applikation): 13,3%
Anteil an Zellen: Pollen (Apis mellifera [1]; 1 Tag vor Applikation): 2,2%
Anteil an Zellen: Puppen (Apis mellifera [1]; 1 Tag vor Applikation): 31,9%
Anteil an Zellen: Eier (Apis mellifera [1]; 6 Tage nach Applikation): 12,2%
Anteil an Zellen: Larven (Apis mellifera [1]; 6 Tage nach Applikation): 0,3%
Anteil an Zellen: Leer (Apis mellifera [1]; 6 Tage nach Applikation): 29,7%
Anteil an Zellen: Nektar (Apis mellifera [1]; 6 Tage nach Applikation): 20,8%
Anteil an Zellen: Pollen (Apis mellifera [1]; 6 Tage nach Applikation): 6,7%
Anteil an Zellen: Puppen (Apis mellifera [1]; 6 Tage nach Applikation): 30,3%
Anteil an Zellen: Eier (Apis mellifera [1]; 14 Tage nach Applikation): 18,3%
Anteil an Zellen: Larven (Apis mellifera [1]; 14 Tage nach Applikation): 10,6%
Anteil an Zellen: Leer (Apis mellifera [1]; 14 Tage nach Applikation): 52,2%
Anteil an Zellen: Nektar (Apis mellifera [1]; 14 Tage nach Applikation): 9,2%
Anteil an Zellen: Pollen (Apis mellifera [1]; 14 Tage nach Applikation): 5,3%
Anteil an Zellen: Puppen (Apis mellifera [1]; 14 Tage nach Applikation): 4,4%
Anteil an Zellen: Eier (Apis mellifera [1]; 27 Tage nach Applikation): 18,6%
Anteil an Zellen: Larven (Apis mellifera [1]; 27 Tage nach Applikation): 7,2%
Anteil an Zellen: Leer (Apis mellifera [1]; 27 Tage nach Applikation): 23,1%
Anteil an Zellen: Nektar (Apis mellifera [1]; 27 Tage nach Applikation): 21,9%
Anteil an Zellen: Pollen (Apis mellifera [1]; 27 Tage nach Applikation): 4,7%
Anteil an Zellen: Puppen (Apis mellifera [1]; 27 Tage nach Applikation): 24,4%
Zahl der Larven (Apis mellifera [1]; result in words, 6 Tage nach Applikation): starke Abnahme
Zahl der Puppen (Apis mellifera [1]; result in words, 14 Tage nach Applikation): starke Abnahme
Zahl toter Puppen (Apis mellifera [2]; 0 DAA c (17:15 Uhr)): 0
Zahl toter Puppen (Apis mellifera [2]; 1 DAA): 0
Zahl toter Puppen (Apis mellifera [2]; 2 DAA): 0
Zahl toter Puppen (Apis mellifera [2]; 5 DAA): 0
Zahl toter Puppen (Apis mellifera [2]; 6 DAA): 0
Zahl toter Puppen (Apis mellifera [2]; 11 DAA): 9
Zahl toter Puppen (Apis mellifera [2]; 14 DAA): 16,7
Zahl toter Puppen (Apis mellifera [2]; 18 DAA): 26,7
Zahl toter Puppen (Apis mellifera [2]; 21 DAA): 0
Zahl toter Puppen (Apis mellifera [2]; 25 DAA): 1
Zahl toter Puppen (Apis mellifera [2]; -3 DAA (before application)): 0
Mortalität von Puppen vor dem Bienenstock (Apis mellifera [2]; result in words, tunnel test, spray, I-5 75 und 150 g a.s./ha, Fenoxycarb 150 g a.s./ha): 11-18 Tage nach Applikation eine Mortalität von Puppen
Zahl toter Arbeiterbienen (Apis mellifera [3]; 0 DAA b (15:15 Uhr)): 0
Zahl toter Arbeiterbienen (Apis mellifera [3]; 0 DAA c (17:15 Uhr)): 0
Zahl toter Arbeiterbienen (Apis mellifera [3]; 1 DAA): 1,3
Zahl toter Arbeiterbienen (Apis mellifera [3]; 2 DAA): 0,7
Zahl toter Arbeiterbienen (Apis mellifera [3]; 3 DAA): 0
Zahl toter Arbeiterbienen (Apis mellifera [3]; 4 DAA): 2
Zahl toter Arbeiterbienen (Apis mellifera [3]; 5 DAA): 1,3
Zahl toter Arbeiterbienen (Apis mellifera [3]; 6 DAA): 3
Zahl toter Arbeiterbienen (Apis mellifera [3]; 11 DAA): 1
Zahl toter Arbeiterbienen (Apis mellifera [3]; -3 DAA (before application)): 1
Aktivität der Nahrungssuche, Zahl der Bienen / min / m^2 (Apis mellifera [4]; 0 DAA a (09:30 Uhr)): 26,2 Bienen / min / m^2
Aktivität der Nahrungssuche, Zahl der Bienen / min / m^2 (Apis mellifera [4]; 0 DAA c (14:15 Uhr)): 38,7 Bienen / min / m^2
Aktivität der Nahrungssuche, Zahl der Bienen / min / m^2 (Apis mellifera [4]; 0 DAA e (17:15 Uhr)): 46 Bienen / min / m^2
Aktivität der Nahrungssuche, Zahl der Bienen / min / m^2 (Apis mellifera [4]; 1 DAA b (15:30 Uhr)): 19 Bienen / min / m^2
Aktivität der Nahrungssuche, Zahl der Bienen / min / m^2 (Apis mellifera [4]; 2 DAA): 32,3 Bienen / min / m^2
Aktivität der Nahrungssuche, Zahl der Bienen / min / m^2 (Apis mellifera [4]; 3 DAA): 38,7 Bienen / min / m^2
Aktivität der Nahrungssuche, Zahl der Bienen / min / m^2 (Apis mellifera [4]; 6 DAA): 38,8 Bienen / min / m^2
Aktivität der Nahrungssuche, Zahl der Bienen / min / m^2 (Apis mellifera [4]; -1 DAA (before application)): 27,3 Bienen / min / m^2
Aktivität der Nahrungssuche, Zahl der Bienen / min / m^2 (Apis mellifera [4]; -2 DAA (before application)): 33,7 Bienen / min / m^2
Aktivität der Nahrungssuche, Zahl der Bienen / min / m^2 (Apis mellifera [4]; -3 DAA (before application)): 25 Bienen / min / m^2

O=C1C=C(N(Cc2ccc(Cl)nc2)C2CC2)CO1 [I-9, 4-{[(6-Chlorpyrid-3-yl)methyl](cyclopropyl)amino}furan-2(5H)-on]
Mortalität (Apis mellifera [5]; [6]): 6%
Mortalität (Apis mellifera [5]; [7]): 9%
Mortalität (Apis mellifera [5]; [8]): 13%
Mortalität (Apis mellifera [5]; [9]): 2%
Mortalität (Apis mellifera [5]; [10]): 3%
Mortalität (Apis mellifera [5]; [11]): 4%
Mortalität (Apis mellifera [5]; [12]): 1%
Mortalität (Apis mellifera [5]; [13]): 2%
Mortalität (Apis mellifera [5]; [14]): 5%
Mortalität (Apis mellifera [5]; [15]): 8,7%
Mortalität (Apis mellifera [5]; [16]): 11%
Mortalität (Apis mellifera [5]; [17]): 12%

CN(Cc1ccc(Cl)nc1)C1=CC(=O)OC1 [I-10, 4-{[(6-Chlorpyrid-3-yl)methyl](methyl)amino}furan-2(5H)-on]
Mortalität (Apis mellifera [5]; [6]): 5%
Mortalität (Apis mellifera [5]; [7]): 5%
Mortalität (Apis mellifera [5]; [8]): 6%
Mortalität (Apis mellifera [5]; [9]): 3%
Mortalität (Apis mellifera [5]; [10]): 7%
Mortalität (Apis mellifera [5]; [11]): 8%
Mortalität (Apis mellifera [5]; [12]): 3%
Mortalität (Apis mellifera [5]; [13]): 4%
Mortalität (Apis mellifera [5]; [14]): 7%
Mortalität (Apis mellifera [5]; [15]): 6,7%
Mortalität (Apis mellifera [5]; [16]): 6,7%
Mortalität (Apis mellifera [5]; [17]): 6,7%
